For series [1], the system named is P. falciparum male gametocytes. Nature of the series: P. falciparum Dual Gamete Formation Assay (PfDGFA), male readout (exflagellation). The format is cell-based, Plasmodium falciparum NF54. The following applies: for Selectivity Ratio M: HepG2 Tox50 versus male IC50. An outline of the steps: (§1)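 Male and female gamete formation were quantified by microscopy image analysis following 24 h incubation of mature NF54 gametocytes with compound and activation at 28°C with xanthurenic acid.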

For series [2], the system named is P. falciparum female gametocytes. Nature of the series: P. falciparum Dual Gamete Formation Assay (PfDGFA), female readout (Pfs25-positive female gametes). Format: cell-based, Plasmodium falciparum NF54. The following applies: for Selectivity ratio F: HepG2 Tox50 versus female IC50. Summed up:
as §1

The subject of series [3] is P. berghei ookinete development. Kind of series: P. berghei Ookinete Development Assay (PbODA). Format: cell-based, Plasmodium berghei. The following applies: Mean TOX HepG2 over Pb ODA value; GREEN = >10-fold; RED = <10-fold.
Series [4] has as its system P. falciparum gametocytes. Kind of series: P. falciparum Gametocyte Viability ATP Assay (PfGCT). The format is cell-based, Plasmodium falciparum. From the text:
Fig 1 The activity of TCAMS compound identified in the Pf DGFA screen. (A) 85 molecules were confirmed active in the Pf DGFA. 58 were previously identified in one or more transmission-blocking screens. […] No molecule was identified with >4.7-fold greater activity against female gametocytes. Abbreviations (IC50 = concentration giving 50% inhibition, PbODA = P. berghei Ookinete Development Assay, PfDGFA = P. falciparum Dual Gamete Formation Assay, PfFGAA = P. falciparum Female Gametocyte Activation Assay, PfGCT = P. falciparum Gametocyte Viability ATP Assay).

Series [5] concerns P. falciparum gametocytes. Also noted: method as in Almela et al 2015. The following applies: ref Almela et al 2015; read-out: Pf Gametocyte viability (ATP) GC-ATP IC50; cited from earlier work.
Series [6] deals with HepG2 cells. The following applies: cited from earlier work.
Series [7] concerns HepG2 cells. Nature of the series: HepG2 cytotoxicity counter-screen. The following applies: for Mean TOX: mean of the HepG2 TOX50 values; for Tox50: cytotoxic activity against HepG2 cells.
The test system of series [8] is P. falciparum female gametocytes. Nature of the series: P. falciparum Female Gametocyte Activation Assay (PfFGAA). Format: cell-based, Plasmodium falciparum.
For series [9] the test system is unchanged. Also noted: method as in Miguel-Blanco et al 2017. As to conditions: ref Miguel-Blanco et al 2017; read-out: Pf female gametogenesis FGAA IC50; cited from earlier work.
The mark [10] stands for this setting: this study, read-out: Pf DGFA IC50 MALE.
[11] abbreviates: this study, read-out: Pf DGFA IC50 FEM.
[12] abbreviates: Mean TOX HepG2 over GC-ATP IC50, GREEN = >10-fold, RED = <10-fold.
Where [13] appears, read: Mean TOX HepG2 over DGFA IC50 MALE, GREEN = >10-fold, RED = <10-fold.
Where [14] appears, read: Plasmodium falciparum, PfDGFA, 24 h incubation with gametocytes before induction, exflagellation readout, read-out: Male IC50.
[15] abbreviates: Mean TOX HepG2 over DGFA IC50 FEM, GREEN = >10-fold, RED = <10-fold.
Setting [16] is: Plasmodium falciparum, PfDGFA, 24 h incubation with gametocytes before induction, female gamete readout, read-out: Female IC50.
The mark [17] stands for this setting: HepG2 value reported with the FGAA screen, ref Miguel-Blanco et al 2017.
The mark [18] stands for this setting: HepG2 value reported with the GC-ATP screen, ref Almela et al 2015.
Where [19] appears, read: Plasmodium falciparum, 2µM, 24h preincubation with gametocytes, average of replicates, read-out: Average inhibition male (%).
The mark [20] stands for this setting: Plasmodium falciparum, 2µM, 24h preincubation with gametocytes, replicate R1, read-out: % inhibition male (individual replicates) R1.
Where [21] appears, read: Plasmodium falciparum, 2µM, 24h preincubation with gametocytes, replicate R2, read-out: % inhibition male (individual replicates) R2.
The mark [22] stands for this setting: Plasmodium falciparum, 2µM, 24h preincubation with gametocytes, replicate R3, read-out: % inhibition male (individual replicates) R3.
Setting [23] is: Plasmodium falciparum, 2µM, 24h preincubation with gametocytes, replicate R4, read-out: % inhibition male (individual replicates) R4.
Setting [24] is: Plasmodium falciparum, 2µM, 24h preincubation with gametocytes, average of replicates, read-out: Average inhibition female (%).
The mark [25] stands for this setting: Plasmodium falciparum, 2µM, 24h preincubation with gametocytes, replicate R1, read-out: % inhibition female (individual replicates) R1.
Where [26] appears, read: Plasmodium falciparum, 2µM, 24h preincubation with gametocytes, replicate R2, read-out: % inhibition female (individual replicates) R2.
Where [27] appears, read: Plasmodium falciparum, 2µM, 24h preincubation with gametocytes, replicate R3, read-out: % inhibition female (individual replicates) R3.
[28] abbreviates: Plasmodium falciparum, 2µM, 24h preincubation with gametocytes, replicate R4, read-out: % inhibition female (individual replicates) R4.

The term IC50 denotes the point on the concentration scale where inhibition reaches its midpoint. In general, inhibition refers to the relative decrease from the control value, in per cent.

Structures are written as SMILES. Read-outs that look alike come from different tables or passages of the source.

As for `O=c1c(Br)ccccc1Br` [TC48], the “Cytotox ratio Pf Male” value in series [1] is 76.3. Further, the 50% inhibitory concentration (IC50) in [1] (setting [10]) was 150 nM; in [2] (setting [11]), 110 nM; in series [5] it was 210 nM. Moreover, in [2], the “Cytotox ratio Pf Female” value came to 104.1. In series [3], the “Cytotox ratio Pb Ookinete” value was 10834.6. Besides, in series [4] (setting [12]), the “Cytotox ratio Pf GC-ATP” value turned out to be 54.5. The “GC-ATP TOX50 HepG2” value with HepG2 cells [6] is recorded as 12.6 µM. Further, the “ODA TOX50 HepG2” value with HepG2 cells [6] is listed as 14.791 µM. In addition, the “Mean TOX” value in the series with HepG2 cells [7] was found to be 11.45 µM.

Regarding `O=C(O)CCSSc1cccc[n+]1[O-]` [TC78], in series [1], the “Cytotox ratio Pf Male” value stood at 92.3. Moreover, the 50% inhibitory concentration (IC50) in series [1] (setting [10]) was 240 nM; in series [2] (setting [11]), 260 nM; in series [9] it was 40 nM; in [5] it was 270 nM. In addition, in [2], the “Cytotox ratio Pf Female” value amounted to 85.2. Further, the “Cytotox ratio Pb Ookinete” value in [3] is on record as 13258.7. Also, the “Cytotox ratio Pf FGAA” value in series [8] (Mean TOX HepG2 over FGAA IC50, GREEN = >10-fold, RED = <10-fold) worked out at 554.1. For the same molecule, the “Cytotox ratio Pf GC-ATP” value in [4] (setting [12]) was 82.1. Besides, the “FGAA TOX50 HepG2” value in the series on HepG2 cells [6] is 19.05 µM. In addition, the “GC-ATP TOX50 HepG2” value in the series on HepG2 cells [6] is listed as 7.8 µM. For the same molecule, the “ODA TOX50 HepG2” value in the series with HepG2 cells [6] is 30.903 µM. Also, the “Mean TOX” value with HepG2 cells [7] was determined as 22.16 µM.

The molecule `COc1cc2nc(N3CCN(c4nc(N)c5cc(OC)c(OC)cc5n4)CC3)nc(N)c2cc1OC` [TCMDC-123865] displayed a HitlevelM in series [1] (2µM, 24h preincubation, number of replicates with >50% inhibition in the male readout) of 3. Besides, in [1], the “Selectivity Ratio M” value came to 28.11. Moreover, the “Cytotox ratio Pf Male” value in series [1] (setting [13]) is given as 26.9. For the same molecule, the inhibition at 2 µM in series [1] (Plasmodium falciparum, 2µM, 24h preincubation with gametocytes prior to induction of gametogenesis, average of replicates, read-out: Average inhibition male (%)) turned out to be 50.1%; in series [1] (Plasmodium falciparum, 2µM, 24h preincubation with gametocytes prior to induction of gametogenesis, replicate R1, read-out: % inhibition male (individual replicates) R1) it was 50.8%; in [1] (Plasmodium falciparum, 2µM, 24h preincubation with gametocytes prior to induction of gametogenesis, replicate R2, read-out: % inhibition male (individual replicates) R2), 50.6%; in series [1] (Plasmodium falciparum, 2µM, 24h preincubation with gametocytes prior to induction of gametogenesis, replicate R3, read-out: % inhibition male (individual replicates) R3), 23.6%; in [1] (Plasmodium falciparum, 2µM, 24h preincubation with gametocytes prior to induction of gametogenesis, replicate R4, read-out: % inhibition male (individual replicates) R4), 75.6%; in series [2] (Plasmodium falciparum, 2µM, 24h preincubation with gametocytes prior to induction of gametogenesis, average of replicates, read-out: Average inhibition female (%)), 2.6%. Besides, the inhibition at 2 µM in [2] (Plasmodium falciparum, 2µM, 24h preincubation with gametocytes prior to induction of gametogenesis, replicate R1, read-out: % inhibition female (individual replicates) R1) is 18.2%; in series [2] (Plasmodium falciparum, 2µM, 24h preincubation with gametocytes prior to induction of gametogenesis, replicate R2, read-out: % inhibition female (individual replicates) R2), 4%; in series [2] (Plasmodium falciparum, 2µM, 24h preincubation with gametocytes prior to induction of gametogenesis, replicate R3, read-out: % inhibition female (individual replicates) R3), -8.7%; in series [2] (Plasmodium falciparum, 2µM, 24h preincubation with gametocytes prior to induction of gametogenesis, replicate R4, read-out: % inhibition female (individual replicates) R4), -3.2%. Also, the IC50 was 1470 nM in [1] (setting [14]), 1990 nM in series [2] (setting [16]), 580 nM in series [9] and 260 nM in series [5]. Moreover, the HitlevelF in [2] (2µM, 24h preincubation, number of replicates with >50% inhibition in the female readout) turned out to be 0. In addition, the “Selectivity ratio F” value in series [2] was determined as 20.76. In addition, the “Cytotox ratio Pf Female” value in series [2] (setting [15]) came to 19.9. Besides, in [8] (human), the “Cytotox ratio Pf FGAA” value is 68.3. Moreover, the “Cytotox ratio Pf GC-ATP” value in series [4] (human) is 152.3. Besides, the “FGAA TOX50 HepG2” value with HepG2 cells [6] (setting [17]) is given as 52.49 µM. In addition, the “GC-ATP TOX50 HepG2” value with HepG2 cells [6] (setting [18]) is reported as 25 µM. In addition, the Tox50 in the series with HepG2 cells [7] is on record as 41.34 µM. The “Mean TOX” value in the series on HepG2 cells [7] came out at 39.61 µM.

Consider `CN(C)CCNCc1cccc(-c2ccc3c(Nc4ccc(Oc5ccccn5)cc4)ccnc3c2)c1` [TCMDC-138493], for which the “Selectivity Ratio M” value in [1] came to 14.59. Also, the “Cytotox ratio Pf Male” value in series [1] (setting [13]) came to 8.5. The inhibition at 2 µM in series [1] (setting [19]) came to 96.2%; in [1] (setting [20]), 93.5%; in series [1] (setting [21]) it was 99.2%; in series [1] (setting [22]), 91.9%; in [1] (setting [23]) it was 100%; in series [2] (setting [24]), 65.4%. For the same molecule, the inhibition at 2 µM was 58.7% in [2] (setting [25]), 66.3% in [2] (setting [26]), 72.6% in series [2] (setting [27]) and 64.1% in [2] (setting [28]). Also, the concentration for half-maximal inhibition (IC50) is 780 nM in series [1] (setting [14]), 5320 nM in series [2] (setting [16]), 820 nM in series [9] and 220 nM in series [5]. For the same molecule, the “Selectivity ratio F” value in [2] is listed as 2.14. The “Cytotox ratio Pf Female” value in series [2] (setting [15]) turned out to be 1.2. Further, in [8] (human), the “Cytotox ratio Pf FGAA” value is listed as 4.9. In series [4] (human), the “Cytotox ratio Pf GC-ATP” value is 20.4. In the series on HepG2 cells [6] (setting [17]), the “FGAA TOX50 HepG2” value is 3.98 µM. Besides, the “GC-ATP TOX50 HepG2” value in the series with HepG2 cells [6] (setting [18]) is 4.49 µM. For the same molecule, in the series with HepG2 cells [7], the Tox50 turned out to be 11.38 µM. Moreover, the “Mean TOX” value in the series with HepG2 cells [7] is recorded as 6.62 µM.

On to `CN1CCN(CCCNCc2cccc(-c3ccc(CNCCc4ccccc4)cc3)c2)CC1.O=C(O)C(F)(F)F` [TCMDC-140643], for which the “Selectivity Ratio M” value in [1] is recorded as 18.8. In addition, in [1] (setting [13]), the “Cytotox ratio Pf Male” value is 18.9. Besides, the inhibition at 2 µM in series [1] (setting [19]) turned out to be 91.2%; in series [1] (setting [20]), 95%; in series [1] (setting [21]) it was 75.6%; in [1] (setting [22]), 95.7%; in [1] (setting [23]), 98.5%; in [2] (setting [24]) it was 34.1%. Further, the inhibition at 2 µM in [2] (setting [25]) came to 40.2%; in series [2] (setting [26]), 30.4%; in [2] (setting [27]), 25.8%; in series [2] (setting [28]), 40%. In addition, the IC50 in [1] (setting [14]) was 690 nM; in series [2] (setting [16]), 7980 nM; in series [9], 1910 nM; in [5], 410 nM. Moreover, the “Selectivity ratio F” value in series [2] was determined as 1.63. The “Cytotox ratio Pf Female” value in series [2] (setting [15]) came to 1.6. Besides, in series [8] (human), the “Cytotox ratio Pf FGAA” value came out at 6.8. Moreover, in series [4] (human), the “Cytotox ratio Pf GC-ATP” value is recorded as 31.9. In the series on HepG2 cells [6] (setting [17]), the “FGAA TOX50 HepG2” value is reported as 7.92 µM. Also, the “GC-ATP TOX50 HepG2” value with HepG2 cells [6] (setting [18]) is 18.24 µM. Moreover, the Tox50 in the series with HepG2 cells [7] came out at 13.04 µM. The “Mean TOX” value with HepG2 cells [7] worked out at 13.07 µM.

The values above are taken from article PMC10584170, “Machine learning-based phenotypic imaging to characterise the targetable biology of Plasmodium falciparum male gametocytes for the development of transmission-blocking antimalarials” (PLOS Pathogens, 2023).
